# Measured values from US11446393B2, “Non-viral gene delivery agent comprising lipopeptide (LP) compounds” (MONASH UNIVERSITY, priority 2017, dated 2022).
# Peptide text beside a SMILES is read from it. * marks the point of attachment. Stearoyl = CCCCCCCCCCCCCCCCCC(=O)*
# Test system: plasmid DNA
# Assay: Dye exclusion assay (SYBR Gold) of DNA condensation by lipopeptide
# Type: physicochemical
# Conditions: charge ratio 2.5:1; n=3, p<0.05; data not shown
# Description: To determine the charge ratio at which the LP effectively condenses the DNA, a dye exclusion assay was carried out. In a 96-well black-bottomed plate, plasmid DNA (20 μg/mL) was prepared in 12 mM Tris-HCl (pH 7.4) buffer. To each well containing DNA, 0.05 μL of 10,000× concentrated stock of intercalating SYBR® Gold (Thermo Fisher Scientific) was added and the plate was incubated at room temperature for 15 minutes. The LP was then added to the wells at a series of charge ratios from 0.5:1 to 5:1. A well containing 20 μg/mL of naked DNA and SYBR® Gold was used as a 100% fluorescence intensity standard (ie no LP added). A blank well containing only the SYBR® Gold in buffer was used to subtract from the fluorescent readings of each sample. The plate was incubated at room temperature for 30 minutes for particle formation. The fluorescence (excitation 492 nm, emission 540 nm) of each sample was measured using a Wallac Envision 2102 Multilabel Reader (PerkinElmer, Waltham, Mass., United States of America).
structure (smiles),measurement,value
"CCCCCCCCCCCCCCCCCC(=O)NC(CS)C(=O)NC(Cc1cnc[nH]1)C(=O)NC(Cc1cnc[nH]1)C(=O)NC(CCCCN)C(=O)NC(CCCCN)C(=O)NC(CCCCN)C(=O)O (stereo not drawn) [stearoyl-CH2K3, stearoyl-Cys-His-His-Lys-Lys-Lys] (Stearoyl-CHHKKK-OH; configuration not given here)",Fluorescence of LP/DNA particles after addition of dithiothreitol (DTT) to the LP before complexation,significantly increased the degree of fluorescence
